The values that follow come from patent publication US5057512A, “3-amino-2-oxo-azetidine-1-sulfonic acids” (Uclaf; Roussel, priority 1981, dated 1991).

Holding throughout (assay): M.I.C., dilutions in liquid medium
What all share (assay type): cell-based

For one test, the system named is Escherichia coli T E M. To be noted: 37° C.; for MIC: Escherichia coli. As for the experimental part:
(§1) A. Activity in Vitro-Method of Dilutions in Liquid Medium
(§2) A series of tubes was prepared in which the same amount of sterile nutritive medium was distributed and there was distributed in each tube increasing amounts of the test product. Then, each tube was inoculated with a bacterial strain and after incubation for twenty-four or forty-eight hours in an oven at 37° C., the inhibition of the growth was evaluated by trans-illumination to determine the minimum inhibiting concentrations (M.I.C.), expressed in μg/ml.

For test [1], the system named is Klebsiella Pneumoniae Exp. 52145. The following applies: 37° C.; for MIC: Klebsiella pneumoniae. As for the experimental part:
as §1, §2

Test [2] relates to Proteus vulgaris (indol +) A 232. To be noted: 37° C.; for MIC: Proteus vulgaris. As to the method:
as §1, §2

For test [3], the system named is Pseudomonas aeruginosa 1771 m. The following applies: 37° C.; for MIC: Pseudomonas aeruginosa, 1771M. As for the experimental part: as §1, §2
Test [4] relates to Enterobacter cloacae 1321 E. The following applies: 37° C.; for MIC: Enterobacter cloacae, 1321E. As for the experimental part: as §1, §2
The test system of the next test is Providencia Du 48. The following applies: 37° C.; for MIC: Providencia, DU48. As to the method:
as §1, §2

A further test relates to Escherichia coli DC 2. To be noted: 37° C.; for MIC: Escherichia coli, DC2. As for the experimental part:
as §1, §2

For test [5], the system named is Salmonella typhimurium MZ 11. The following applies: 37° C.; for MIC: Salmonella enterica, TYPHIMURIUM
As to the method: as §1, §2

The next test has as its system Escherichia coli DC 0. To be noted: 37° C.; for MIC: Escherichia coli. As for the experimental part:
as §1, §2

The subject of a further test is Escherichia coli 0 78. The following applies: 37° C. As to the method: as §1, §2
The subject of the next test is Escherichia coli 1507 E. The following applies: 37° C.; for MIC: Escherichia coli, 1507E. As to the method:
as §1, §2

Test [6] concerns Klebsiella aerogenes 1082 E. The following applies: 37° C.; for MIC: Klebsiella aerogenes, 1082E. As for the experimental part:
as §1, §2

The test system of test [7] is Klebsiella aerogenes 1522 E. To be noted: 37° C.; for MIC: Klebsiella aerogenes, 1522E. As for the experimental part: as §1, §2
The test system of a further test is Escherichia coli UC 1894. To be noted: 37° C.; for MIC: Escherichia coli, UC1894. As to the method: as §1, §2
In test [8] the test system is Serratia Resistant to Gentamycine 2 532. The following applies: 37° C.; for MIC: Serratia. As for the experimental part:
as §1, §2

The subject of test [9] is Proteus mirabilis (indol -) A 235. The following applies: 37° C.; for MIC: Proteus mirabilis. As to the method: as §1, §2
Test [10] has as its system Salmonella typhimurium 420. The following applies: Salmonella enterica, 37° C. As to the method: as §1, §2
The test system of test [11] is Escherichia Coli Resistant to Tetracycline AT CC 11 303. To be noted: 37° C. As for the experimental part:
as §1, §2

Test [12] has as its system Escherichia Coli Sensitive to Tetracycline 7624. To be noted: 37° C. As to the method: as §1, §2
Test [13] concerns Klebsiella Pneumoniae 2536 Resistant Gentamycine. To be noted: 37° C. As to the method:
as §1, §2

The subject of test [14] is Escherichia Coli Resistant to Gentamycine Tobramycine R55 123 D. The following applies: 37° C. As for the experimental part: as §1, §2
Where [15] appears, read: Escherichia coli, 078, 24 h, 24 H.
[16] abbreviates: Escherichia coli, 078, 48 h, 48 H.

Regarding `CON=C(C(=O)NC1C(=O)N(S(=O)(=O)O)C1CF)c1csc(N)n1` [Example 11, (3S,4S)ΔZ 4-fluoromethyl-3-[2-(2-amino-4-thiazolyl)-2-methoxyimino-acetamido]-2-oxo-azetidine-1-sulfonic acid], the M.I.C. is 0.08 µg/mL in the test with Escherichia coli T E M (24 H); 0.08 µg/mL in test [1] (24 Hr.); no more than 0.04 µg/mL in [2] (24 Hr.); 0.6 µg/mL in test [3] (24 H); 0.08 µg/mL in test [4] (24 H); 0.3 µg/mL in the test with Providencia Du 48 (24 Hr.). For the same molecule, the M.I.C. with Escherichia coli DC 2 (24 H) was 0.15 µg/mL; in [5] (24 H), no more than 0.04 µg/mL; in the test with Escherichia coli DC 0 (24 H), 0.15 µg/mL; in the test with Escherichia coli 0 78 (24 H), 0.08 µg/mL; in the test with Escherichia coli 1507 E (24 H), 0.08 µg/mL; in test [6] (24 H), 10 µg/mL. For the same molecule, the M.I.C. is 0.08 µg/mL in test [7] (24 H), no more than 0.04 µg/mL in the test on Escherichia coli UC 1894 (24 H), 2.5 µg/mL in [8] (24 Hr.) and 0.15 µg/mL in [9] (24 Hr.).

In the case of `Nc1nc(C(=NOC(F)F)C(=O)NC2C(=O)N(S(=O)(=O)O)C2CF)cs1` (mixture of isomers) [Example 8, Racemate of the syn isomer of cis 4-fluoromethyl-3-[2-(2-amino-4-thiazolyl)-2-difluoromethoxyimino-acetamido]-2-oxo-azetidine-1-sulfonic acid], the MIC – broadly, the smallest concentration in the dilution series that meets the test's criterion for growth inhibition – was 0.15 µg/mL in the test on Escherichia coli T E M (24 h); 0.15 µg/mL in the test with Escherichia coli T E M (48 h); 0.3 µg/mL in test [1] (24 h); 0.3 µg/mL in test [1] (48 h); no more than 0.04 µg/mL in test [2] (24 Hr.); no more than 0.04 µg/mL in [2] (48 Hr.). In addition, the MIC in test [4] (24 H) was 0.08 µg/mL; in test [4] (48 H), 0.08 µg/mL; in the test on Providencia Du 48 (24 Hr.), 0.3 µg/mL; in the test on Providencia Du 48 (48 Hr.), 0.3 µg/mL; against Escherichia coli DC 2 (24 H), no more than 0.04 µg/mL; with Escherichia coli DC 2 (48 H) it was no more than 0.04 µg/mL. The MIC amounted to 0.08 µg/mL in test [5] (24 h); 0.08 µg/mL in test [5] (48 h); 0.08 µg/mL against Escherichia coli DC 0 (DC0, 24 h, 24 H); 0.08 µg/mL in the test with Escherichia coli DC 0 (DC0, 48 h, 48 H); 0.08 µg/mL against Escherichia coli 0 78 (setting [15]); 0.08 µg/mL in the test with Escherichia coli 0 78 (setting [16]). The MIC is no more than 0.04 µg/mL in the test with Escherichia coli 1507 E (24 h); no more than 0.04 µg/mL against Escherichia coli 1507 E (48 h); 0.08 µg/mL in test [7] (24 h); 0.08 µg/mL in test [7] (48 h); no more than 0.04 µg/mL against Escherichia coli UC 1894 (24 H); no more than 0.08 µg/mL in the test with Escherichia coli UC 1894 (48 H). In addition, the minimal inhibitory concentration (MIC) in test [8] (24 h) is 0.6 µg/mL; in [8] (48 h), 0.6 µg/mL; in test [9] (24 h), no more than 0.04 µg/mL; in test [9] (48 h), no more than 0.04 µg/mL.

As for `CC(C)(ON=C(C(=O)NC1C(=O)N(S(=O)(=O)O)C1CF)c1csc(N)n1)C(=O)O` (mixture of isomers) [Example 6, Racemate of syn isomer of cis 4-fluoromethyl-3-[2-(2-amino-4-thiazolyl)-2-(1-carboxy-1-methyl-ethoxy)-imino-acetamido]-2-oxo-azetidine-1-sulfonic acid], the MIC against Escherichia coli T E M (24 h) was 0.6 µg/mL; against Escherichia coli T E M (48 h), 0.6 µg/mL; in test [1] (24 h), 0.6 µg/mL; in [1] (48 h) it was 0.6 µg/mL; in [2] (24 Hr.), no more than 0.04 µg/mL; in test [2] (48 Hr.), no more than 0.04 µg/mL. The MIC turned out to be 0.3 µg/mL in test [3] (24 H); 0.6 µg/mL in test [3] (48 H); 0.3 µg/mL in test [4] (24 H); 0.3 µg/mL in [4] (48 H); 0.15 µg/mL in the test with Providencia Du 48 (24 Hr.); 0.15 µg/mL against Providencia Du 48 (48 Hr.). Moreover, the MIC against Escherichia coli DC 2 (24 H) was 0.3 µg/mL; in the test on Escherichia coli DC 2 (48 H) it was 0.3 µg/mL; in test [5] (24 h), 0.6 µg/mL; in test [5] (48 h) it was 0.6 µg/mL; in the test with Escherichia coli DC 0 (DC0, 24 h, 24 H), 0.6 µg/mL; against Escherichia coli DC 0 (DC0, 48 h, 48 H), 0.6 µg/mL. Further, the MIC in the test on Escherichia coli 0 78 (setting [15]) worked out at 0.3 µg/mL; against Escherichia coli 0 78 (setting [16]) it was 0.3 µg/mL; with Escherichia coli 1507 E (24 h), 0.6 µg/mL; in the test on Escherichia coli 1507 E (48 h), 0.6 µg/mL; in test [6] (24 h) it was 0.6 µg/mL; in [6] (48 h), 0.6 µg/mL. In addition, the MIC in [7] (24 h) is 0.3 µg/mL; in test [7] (48 h), 0.3 µg/mL; with Escherichia coli UC 1894 (24 H), 0.08 µg/mL; in the test with Escherichia coli UC 1894 (48 H), 0.08 µg/mL; in test [8] (24 h), 0.3 µg/mL; in test [8] (48 h), 0.3 µg/mL. The MIC in test [9] (24 h) and in test [9] (48 h) was no more than 0.04 µg/mL each time.

Take `NCCON=C(C(=O)NC1C(=O)N(S(=O)(=O)O)C1CCl)c1csc(N)n1` (mixture of isomers) [Example 3, Racemate of syn isomer of cis 4-chloromethyl-3[2(2-amino-4-thiazolyl)-2-(2-aminoethoxy)-imino-acetamido]-2-oxo-azetidine-1-sulfonic acid]: the MIC came to 2.5 µg/mL in test [10] (24 Hr.); 5 µg/mL in test [10] (48 Hr.); 5 µg/mL in test [1] (24 h); 10 µg/mL in test [1] (48 h); 1.2 µg/mL in test [2] (24 Hr.); 1.2 µg/mL in test [2] (48 Hr.). Further, the MIC in the test on Providencia Du 48 (24 Hr.) is 2.5 µg/mL; against Providencia Du 48 (48 Hr.), 2.5 µg/mL; in test [11] (24 Hr.), 0.6 µg/mL; in test [11] (48 Hr.) it was 0.6 µg/mL; in test [12] (24 Hr.), 1.2 µg/mL; in test [12] (48 Hr.) it was 1.2 µg/mL. Moreover, the MIC was 2.5 µg/mL in test [13] (24 Hr.); 2.5 µg/mL in test [13] (48 Hr.); 2.5 µg/mL in test [8] (24 h); 5 µg/mL in [8] (48 h); 0.6 µg/mL in test [9] (24 h); 0.6 µg/mL in test [9] (48 h). The MIC in test [14] (24 Hr.) and in [14] (48 Hr.) was 1.2 µg/mL each time.

Regarding `Nc1nc(C(=NO)C(=O)NC2C(=O)N(S(=O)(=O)O)C2CCl)cs1` (mixture of isomers) [Example 4, Racemate of syn isomer of cis 4-chloromethyl-3-[2-(2-amino-4-thiazolyl)-2-hydroxyimino-acetamido]-2-oxo-azetidine-1-sulfonic acid], the MIC in [10] (24 Hr.) was 1.2 µg/mL; in [10] (48 Hr.), 2.5 µg/mL; in test [1] (24 h), 5 µg/mL; in test [1] (48 h) it was 5 µg/mL; in test [2] (24 Hr.), 0.6 µg/mL; in test [2] (48 Hr.), 0.6 µg/mL. Besides, the MIC in the test on Providencia Du 48 (24 Hr.) amounted to 0.6 µg/mL; in the test with Providencia Du 48 (48 Hr.), 1.2 µg/mL; in test [11] (24 Hr.), 0.6 µg/mL; in test [11] (48 Hr.), 0.6 µg/mL; in test [12] (24 Hr.) it was 0.6 µg/mL; in [12] (48 Hr.) it was 0.6 µg/mL. The MIC in [13] (24 Hr.) came to 2.5 µg/mL; in [13] (48 Hr.) it was 2.5 µg/mL; in test [8] (24 h), 5 µg/mL; in [8] (48 h) it was 5 µg/mL; in [9] (24 h) it was 0.6 µg/mL; in test [9] (48 h), 1.2 µg/mL. Besides, the MIC in test [14] (24 Hr.) and in test [14] (48 Hr.) was 0.6 µg/mL throughout.
